The NIST ThermoML archive (doi:10.1021/je100423n)

Experiments:
[1] = Molar enthalpy of transition or fusion; conditions: Crystal; DSC
[2] = molar heat capacity at constant pressure; conditions: 101.33 kPa, Crystal

Cn1cc[n+](CCCCS(=O)(=O)[O-])c1 [4-(1-methyl-1H-imidazolium-3-yl)butane-1-sulfonate]
Conditions	Glass transition temperature [°C]	Normal melting temperature [°C]	molar heat capacity at constant pressure [J/K/mol]
Crystal, DTA	–	235.83	–
Glass, Adiabatic calorimetry	30.46	–	–
[2], 80.21 K	–	–	109.32
[2], 82.3 K	–	–	110.19
[2], 84.23 K	–	–	111.45
[2], 86.16 K	–	–	114.23
[2], 88.12 K	–	–	115.88
[2], 90.06 K	–	–	117.56
[2], 92.01 K	–	–	118.29
[2], 93.95 K	–	–	119.31
[2], 95.89 K	–	–	120.93
[2], 97.83 K	–	–	122.2
[2], 99.77 K	–	–	123.74
[2], 102.48 K	–	–	124.48
[2], 105.12 K	–	–	126.89
[2], 107 K	–	–	127.99
[2], 108.91 K	–	–	129.52
[2], 110.85 K	–	–	130.01
[2], 112.81 K	–	–	131.16
[2], 114.75 K	–	–	132.61
[2], 116.67 K	–	–	133.57
[2], 118.61 K	–	–	135.14
[2], 120.58 K	–	–	137.07
[2], 122.53 K	–	–	137.67
[2], 124.46 K	–	–	138.87
[2], 126.38 K	–	–	139.75
[2], 128.32 K	–	–	140.75
[2], 130.3 K	–	–	142.4
[2], 132.25 K	–	–	144.69
[2], 134.2 K	–	–	145.28
[2], 136.13 K	–	–	145.45
[2], 138.04 K	–	–	146.27
[2], 139.98 K	–	–	147.32
[2], 141.94 K	–	–	148.6
[2], 143.9 K	–	–	150.42
[2], 145.84 K	–	–	151.09
[2], 147.76 K	–	–	152.25
[2], 149.67 K	–	–	153.38
[2], 152.19 K	–	–	153.72
[2], 154.71 K	–	–	155.47
[2], 156.63 K	–	–	157
[2], 158.54 K	–	–	158.94
[2], 160.5 K	–	–	159.74
[2], 162.51 K	–	–	160.66
[2], 164.51 K	–	–	162.3
[2], 166.5 K	–	–	163.42
[2], 168.48 K	–	–	163.25
[2], 170.44 K	–	–	164.22
[2], 172.4 K	–	–	166.07
[2], 174.34 K	–	–	169.35
[2], 176.29 K	–	–	169.43
[2], 178.22 K	–	–	169.86
[2], 180.14 K	–	–	172.46
[2], 182.06 K	–	–	172.94
[2], 183.96 K	–	–	173.45
[2], 185.91 K	–	–	174.79
[2], 187.92 K	–	–	176.2
[2], 189.92 K	–	–	177.8
[2], 191.9 K	–	–	179.25
[2], 193.89 K	–	–	180.62
[2], 195.86 K	–	–	181.69
[2], 197.82 K	–	–	183.02
[2], 199.78 K	–	–	184.59
[2], 202.16 K	–	–	186.03
[2], 204.55 K	–	–	188.92
[2], 206.52 K	–	–	189.41
[2], 208.48 K	–	–	190.86
[2], 210.43 K	–	–	192.56
[2], 212.37 K	–	–	193.16
[2], 214.31 K	–	–	194.31
[2], 216.23 K	–	–	195.92
[2], 218.15 K	–	–	196.94
[2], 220.06 K	–	–	198.36
[2], 221.95 K	–	–	199.16
[2], 223.84 K	–	–	200.4
[2], 225.81 K	–	–	201.12
[2], 227.76 K	–	–	203.49
[2], 229.69 K	–	–	205.7
[2], 231.68 K	–	–	206.8
[2], 233.67 K	–	–	207.23
[2], 235.68 K	–	–	210
[2], 237.67 K	–	–	211.8
[2], 239.66 K	–	–	212.72
[2], 242.01 K	–	–	212.87
[2], 244.29 K	–	–	213.82
[2], 246.26 K	–	–	215.02
[2], 248.23 K	–	–	216.05
[2], 250.19 K	–	–	217.52
[2], 252.24 K	–	–	219.72
[2], 254.3 K	–	–	221.07
[2], 256.34 K	–	–	222.28
[2], 258.38 K	–	–	223.16
[2], 260.41 K	–	–	224.41
[2], 262.43 K	–	–	226.87
[2], 264.45 K	–	–	228.3
[2], 266.45 K	–	–	230.63
[2], 268.46 K	–	–	233.04
[2], 270.45 K	–	–	233.66
[2], 272.44 K	–	–	235.64
[2], 274.42 K	–	–	237.81
[2], 276.4 K	–	–	239.51
[2], 278.38 K	–	–	241.25
[2], 280.34 K	–	–	243.42
[2], 282.3 K	–	–	245.29
[2], 284.25 K	–	–	246.94
[2], 286.19 K	–	–	249.67
[2], 288.12 K	–	–	252.87
[2], 290.04 K	–	–	253.95
[2], 291.95 K	–	–	254.73
[2], 293.85 K	–	–	255.69
[2], 295.85 K	–	–	257.59
[2], 297.85 K	–	–	258.49
[2], 299.75 K	–	–	260.96
[2], 301.74 K	–	–	261.24
[2], 303.72 K	–	–	264.66
[2], 305.71 K	–	–	264.36
[2], 307.78 K	–	–	264.22
[2], 309.84 K	–	–	267.13
[2], 311.9 K	–	–	269.55
[2], 313.95 K	–	–	271.31
[2], 315.99 K	–	–	273.57
[2], 318.03 K	–	–	274.9
[2], 320.06 K	–	–	276.18
[2], 322.09 K	–	–	278.14
[2], 324.11 K	–	–	279.41
[2], 326.12 K	–	–	281.91
[2], 328.13 K	–	–	283.31
[2], 330.13 K	–	–	285.02
[2], 332.13 K	–	–	286.68
[2], 334.12 K	–	–	289.14
[2], 336.11 K	–	–	290.13
[2], 338.09 K	–	–	291.64
[2], 340.07 K	–	–	293.16
[2], 342.04 K	–	–	294.72
[2], 344 K	–	–	297.82
[2], 345.96 K	–	–	300.22
[2], 347.92 K	–	–	301.67
[2], 349.87 K	–	–	302.61
[2], 351.81 K	–	–	304.94
[2], 353.75 K	–	–	306.16
[2], 355.69 K	–	–	308.54
[2], 357.62 K	–	–	308.82
[2], 359.54 K	–	–	310.24
[2], 361.47 K	–	–	312.31
[2], 363.48 K	–	–	313.02
[2], 365.48 K	–	–	315.16
[2], 367.47 K	–	–	315.19
[2], 369.54 K	–	–	318.14
[2], 371.62 K	–	–	320.13
[2], 373.68 K	–	–	321.14
[2], 375.73 K	–	–	323.95
[2], 377.79 K	–	–	324.83
[2], 379.83 K	–	–	325.26
[2], 381.87 K	–	–	327.6
[2], 383.9 K	–	–	332.07
[2], 385.94 K	–	–	334
[2], 387.96 K	–	–	335.27
[2], 389.98 K	–	–	335.42
[2], 391.98 K	–	–	337.63
[2], 393.99 K	–	–	338.39
[2], 395.97 K	–	–	341.92
[2], 397.96 K	–	–	344.53

Conditions	Molar enthalpy of transition or fusion [kcal/mol]
[1]	6.01
